Experiment [1] has as its system Streptococcus mutans. Nature of the experiment: Agonist activity at Streptococcus mutans SAB249 ComD receptor assessed as increase in cipB expression at 10 uM after 1 hr by beta-galactosidase reporter gene assay relative to control. (In a reporter assay the amount or activity of a reporter protein is the signal.)
The subject of experiment [2] is Streptococcus mutans. Nature of the experiment: Antagonist activity at Streptococcus mutans SAB249 ComD receptor assessed as inhibition of 18-CSP-induced cipB expression at 10 uM after 1 hr by beta-galactosidase reporter gene assay.
Experiment [3] has as its system Streptococcus mutans. Nature of the experiment: Activation of comD quorum sensing system in Streptococcus mutans SMCC3 harboring comC deletion mutant assessed as reduction in inhibition zone of Streptococcus anginosus ATCC 33397 at 5 to 100 nM preincubated for 4 hrs followed by Streptococcus anginosus ATCC 33397 addition and measured after 24 hrs.
Experiment [4] can be described thus: Agonist activity at Streptococcus mutans SAB249 ComD receptor assessed as increase in cipB expression after 1 hr by beta-galactosidase reporter gene assay.
The subject of experiment [5] is Streptococcus mutans. Briefly: Activation of comD quorum sensing system in Streptococcus mutans SMCC3 harboring comC deletion mutant assessed as reduction in inhibition zone of Streptococcus anginosus ATCC 33397 at 0.25 nM preincubated for 4 hrs followed by Streptococcus anginosus ATCC 33397 addition and measured after 24 hrs.
Experiment [6] has as its system Streptococcus mutans. Nature of the experiment: Activation of comD quorum sensing system in Streptococcus mutans SMCC3 harboring comC deletion mutant assessed as reduction in inhibition zone of Streptococcus anginosus ATCC 33397 at 0.25 to 1 nM preincubated for 4 hrs followed by Streptococcus anginosus ATCC 33397 addition and measured after 24 hrs.

Calls of active or inactive are those of the source. The calls are words filed in the database; no cut-off is given here. Non-standard residues stand in square brackets, D forms with d. Residues, ends and D or L forms follow the SMILES beside them. NMeR = CN[C@@H](CCCNC(=N)N)C(=O)O; NMeF = CN[C@@H](Cc1ccccc1)C(=O)O; NMeT = CN[C@H](C(=O)O)[C@@H](C)O; NMeN = CN[C@@H](CC(N)=O)C(=O)O; NMeL = CN[C@@H](CC(C)C)C(=O)O; NMeS = CN[C@@H](CO)C(=O)O Bounds are passed on as bounds.

As for `CC(C)C[C@H](NC(=O)[C@H](CCCNC(=N)N)NC(=O)[C@H](Cc1ccccc1)NC(=O)[C@H](Cc1ccccc1)NC(=O)[C@@H](NC(=O)[C@H](CO)NC(=O)[C@H](CC(C)C)NC(=O)[C@@H](N)CO)[C@@H](C)O)C(=O)N[C@@H](Cc1ccccc1)C(=O)N[C@@H](CC(N)=O)C(=O)N[C@@H](CCCNC(=N)N)C(=O)N[C@@H](CO)C(=O)N[C@@H](Cc1ccccc1)C(=O)N(C)[C@H](C(=O)N[C@@H](CCC(N)=O)C(=O)N[C@@H](C)C(=O)O)[C@@H](C)O` (H-SLSTFFRLFNRSF[NMeT]QA-OH), in the experiment with Streptococcus mutans [1], the Activity came out at 38%. Also, the inhibition entry in the experiment on Streptococcus mutans [2] was “inactive”.

For `CC(C)C[C@H](NC(=O)[C@H](CCCNC(=N)N)NC(=O)[C@H](Cc1ccccc1)NC(=O)[C@H](Cc1ccccc1)NC(=O)[C@@H](NC(=O)[C@H](CO)NC(=O)[C@H](CC(C)C)NC(=O)[C@@H](N)CO)[C@@H](C)O)C(=O)N[C@@H](Cc1ccccc1)C(=O)N[C@@H](CC(N)=O)C(=O)N[C@@H](CCCNC(=N)N)C(=O)N[C@@H](CO)C(=O)N(C)[C@@H](Cc1ccccc1)C(=O)N[C@H](C(=O)N[C@@H](CCC(N)=O)C(=O)N[C@@H](C)C(=O)O)[C@@H](C)O` (H-SLSTFFRLFNRS[NMeF]TQA-OH), the Activity in the experiment on Streptococcus mutans [1] stood at 17%. In addition, the inhibition entry in the experiment with Streptococcus mutans [2] is “inactive”.

With `CC(C)C[C@H](NC(=O)[C@H](CCCNC(=N)N)NC(=O)[C@H](Cc1ccccc1)NC(=O)[C@H](Cc1ccccc1)NC(=O)[C@@H](NC(=O)[C@H](CO)NC(=O)[C@H](CC(C)C)NC(=O)[C@@H](N)CO)[C@@H](C)O)C(=O)N[C@@H](Cc1ccccc1)C(=O)N[C@@H](CC(N)=O)C(=O)N[C@@H](CCCNC(=N)N)C(=O)N(C)[C@@H](CO)C(=O)N[C@@H](Cc1ccccc1)C(=O)N[C@H](C(=O)N[C@@H](CCC(N)=O)C(=O)N[C@@H](C)C(=O)O)[C@@H](C)O` (H-SLSTFFRLFNR[NMeS]FTQA-OH), the Activity in the experiment on Streptococcus mutans [1] stood at 12%. Besides, in the experiment with Streptococcus mutans [2], the inhibition result was “inactive”.

As to `CC(C)C[C@H](NC(=O)[C@H](CCCNC(=N)N)NC(=O)[C@H](Cc1ccccc1)NC(=O)[C@H](Cc1ccccc1)NC(=O)[C@@H](NC(=O)[C@H](CO)NC(=O)[C@H](CC(C)C)NC(=O)[C@@H](N)CO)[C@@H](C)O)C(=O)N[C@@H](Cc1ccccc1)C(=O)N[C@@H](CC(N)=O)C(=O)N(C)[C@@H](CCCNC(=N)N)C(=O)N[C@@H](CO)C(=O)N[C@@H](Cc1ccccc1)C(=O)N[C@H](C(=O)N[C@@H](CCC(N)=O)C(=O)N[C@@H](C)C(=O)O)[C@@H](C)O` (H-SLSTFFRLFN[NMeR]SFTQA-OH), the inhibition entry with Streptococcus mutans [3] was “Active”. In the experiment with Streptococcus mutans [1], the Activity stood at 5%. Moreover, in the experiment with Streptococcus mutans [2], the inhibition result is “inactive”.

On to `CC(C)C[C@H](NC(=O)[C@H](CCCNC(=N)N)NC(=O)[C@H](Cc1ccccc1)NC(=O)[C@H](Cc1ccccc1)NC(=O)[C@@H](NC(=O)[C@H](CO)NC(=O)[C@H](CC(C)C)NC(=O)[C@@H](N)CO)[C@@H](C)O)C(=O)N[C@@H](Cc1ccccc1)C(=O)N(C)[C@@H](CC(N)=O)C(=O)N[C@@H](CCCNC(=N)N)C(=O)N[C@@H](CO)C(=O)N[C@@H](Cc1ccccc1)C(=O)N[C@H](C(=O)N[C@@H](CCC(N)=O)C(=O)N[C@@H](C)C(=O)O)[C@@H](C)O` (H-SLSTFFRLF[NMeN]RSFTQA-OH), for which the Activity with Streptococcus mutans [1] worked out at 11%. Further, the inhibition result with Streptococcus mutans [2] was “inactive”.

For `CC(C)C[C@H](NC(=O)[C@@H](N)CO)C(=O)N[C@@H](CO)C(=O)N[C@H](C(=O)N[C@@H](Cc1ccccc1)C(=O)N[C@@H](Cc1ccccc1)C(=O)N[C@@H](CCCNC(=N)N)C(=O)N[C@@H](CC(C)C)C(=O)N(C)[C@@H](Cc1ccccc1)C(=O)N[C@@H](CC(N)=O)C(=O)N[C@@H](CCCNC(=N)N)C(=O)N[C@@H](CO)C(=O)N[C@@H](Cc1ccccc1)C(=O)N[C@H](C(=O)N[C@@H](CCC(N)=O)C(=O)N[C@@H](C)C(=O)O)[C@@H](C)O)[C@@H](C)O` (H-SLSTFFRL[NMeF]NRSFTQA-OH), the inhibition result in the experiment with Streptococcus mutans [3] was “Active”. Moreover, in the experiment with Streptococcus mutans [1], the Activity is 0%. Moreover, in the experiment with Streptococcus mutans [2], the inhibition entry was “inactive”.

As for `CC(C)C[C@H](NC(=O)[C@@H](N)CO)C(=O)N[C@@H](CO)C(=O)N[C@H](C(=O)N[C@@H](Cc1ccccc1)C(=O)N[C@@H](Cc1ccccc1)C(=O)N[C@@H](CCCNC(=N)N)C(=O)N(C)[C@@H](CC(C)C)C(=O)N[C@@H](Cc1ccccc1)C(=O)N[C@@H](CC(N)=O)C(=O)N[C@@H](CCCNC(=N)N)C(=O)N[C@@H](CO)C(=O)N[C@@H](Cc1ccccc1)C(=O)N[C@H](C(=O)N[C@@H](CCC(N)=O)C(=O)N[C@@H](C)C(=O)O)[C@@H](C)O)[C@@H](C)O` (H-SLSTFFR[NMeL]FNRSFTQA-OH), in the experiment with Streptococcus mutans [1], the Activity came to 29%. Besides, the inhibition entry with Streptococcus mutans [2] is “inactive”.

On to `CC(C)C[C@H](NC(=O)[C@@H](N)CO)C(=O)N[C@@H](CO)C(=O)N[C@H](C(=O)N[C@@H](Cc1ccccc1)C(=O)N[C@@H](Cc1ccccc1)C(=O)N(C)[C@@H](CCCNC(=N)N)C(=O)N[C@@H](CC(C)C)C(=O)N[C@@H](Cc1ccccc1)C(=O)N[C@@H](CC(N)=O)C(=O)N[C@@H](CCCNC(=N)N)C(=O)N[C@@H](CO)C(=O)N[C@@H](Cc1ccccc1)C(=O)N[C@H](C(=O)N[C@@H](CCC(N)=O)C(=O)N[C@@H](C)C(=O)O)[C@@H](C)O)[C@@H](C)O` (H-SLSTFF[NMeR]LFNRSFTQA-OH), for which the Activity in the experiment with Streptococcus mutans [1] is 45%. In the experiment on Streptococcus mutans [2], the inhibition entry is “inactive”.

The EC50 is the concentration at which the effect is half-maximal. `CC(C)C[C@H](NC(=O)[C@H](CCCNC(=N)N)NC(=O)[C@H](Cc1ccccc1)NC(=O)[C@H](Cc1ccccc1)NC(=O)[C@H]([C@@H](C)O)N(C)C(=O)[C@H](CO)NC(=O)[C@H](CC(C)C)NC(=O)[C@@H](N)CO)C(=O)N[C@@H](Cc1ccccc1)C(=O)N[C@@H](CC(N)=O)C(=O)N[C@@H](CCCNC(=N)N)C(=O)N[C@@H](CO)C(=O)N[C@@H](Cc1ccccc1)C(=O)N[C@H](C(=O)N[C@@H](CCC(N)=O)C(=O)N[C@@H](C)C(=O)O)[C@@H](C)O` (H-SLS[NMeT]FFRLFNRSFTQA-OH): the EC50 in experiment [4] is more than 1000 nM.

On to H-GSLSAFFRAFNAAFTAA-OH, for which the inhibition result with Streptococcus mutans [3] and with Streptococcus mutans [5] was “Active” in each case.

As to H-GSLSAFFRAFNAAFTQA-OH, the inhibition result in the experiment with Streptococcus mutans [3] and with Streptococcus mutans [5] was “Active” throughout.

Regarding H-GSLSTFFRLFNRSFTQA-OH, in experiment [4], the EC50 was found to be 4.8 nM.

For H-SGSLSTFFRLFNRSFTQA-OH, in experiment [4], the EC50 is 6.2 nM. The Activity in the experiment on Streptococcus mutans [1] was 100%. The inhibition result in the experiment with Streptococcus mutans [6] is “inactive”.

As to H-SLSTFFRLFNRSFTQA-OH, the EC50 in experiment [4] is 7.9 nM. For the same compound, the Activity in the experiment with Streptococcus mutans [1] amounted to 100%.
